US6667387B1, “HCV core peptides” (priority 1992, dated 2003)
Ends that are not written are not given here.

Key:
[1] = system: antibodies in sera from HCV-seropositive donors; experiment: ELISA with HCV antibody-positive sera (biotinylated peptides on streptavidin- or avidin-coated plates, unbiotinylated peptides coated directly); assay type: binding, human
Outline: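 Peptides coated either directly at 2–5 or 3 μg/ml in carbonate buffer pH 9.6, or biotinylated at 1 μg/ml on streptavidin-coated wells (3 μg/ml). Plates casein-blocked, then human sera (1:100 or 1:20) incubated 1 h at 37° C. Bound antibody detected with HRP anti-human Ig/TMB, read as OD450.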

[2] = ELISA with seronegative / negative control sera (specificity); assay type: binding, human
Outline: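 Specificity readout is OD at 450 nm (HRP goat anti-human Ig, TMB/H2O2, sulfuric acid stop), with ≥0.250 counted positive. Seronegative donor sera (typically 1:100, 1 h, 37° C) were applied to casein-blocked wells coated with peptide directly or via streptavidin capture of biotinylated peptide.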

In the case of IIPDREVLYREFDEMEECSQ, the “optical density (450 nm)” value ([1]; Table 4F, serum 8315, 20-fold dilution) is reported as 2.614, the “optical density (450 nm)” value ([1]; Table 4F, serum 8316, 20-fold dilution) is reported as 0.133 and the “optical density (450 nm)” value ([1]; Table 4F, serum 8317, 20-fold dilution) is reported as 0.855. The “optical density (450 nm)” value ([1]; Table 4F, serum 8318, 20-fold dilution) was 1.965, the “optical density (450 nm)” value ([1]; Table 4F, serum 8320, 20-fold dilution) was 0.721 and the “optical density (450 nm)” value ([1]; Table 4F, serum 8321, 20-fold dilution) was 0.283. For the same sequence, the “optical density (450 nm)” value ([1]; Table 4F, serum 8326, 20-fold dilution) was 2.219, the “optical density (450 nm)” value ([1]; Table 5, sample 8242 (positive), peptide concentration 0.01 micrograms per milliliter, listed as Unbiotinylated HCV peptide IX) was 0.049 and the “optical density (450 nm)” value ([1]; Table 5, sample 8242 (positive), peptide concentration 0.03 micrograms per milliliter, listed as Unbiotinylated HCV peptide IX) was 0.047. The “optical density (450 nm)” value ([1]; Table 5, sample 8242 (positive), peptide concentration 0.1 micrograms per milliliter, listed as Unbiotinylated HCV peptide IX) was 0.046, the “optical density (450 nm)” value ([1]; Table 5, sample 8242 (positive), peptide concentration 0.3 micrograms per milliliter, listed as Unbiotinylated HCV peptide IX) was 0.048 and the “optical density (450 nm)” value ([1]; Table 5, sample 8242 (positive), peptide concentration 1.0 micrograms per milliliter, listed as Unbiotinylated HCV peptide IX) was 0.052. For the same sequence, the “optical density (450 nm)” value ([1]; Table 5, sample 8242 (positive), peptide concentration 3.0 micrograms per milliliter, listed as Unbiotinylated HCV peptide IX) was 0.059, the “optical density (450 nm)” value ([1]; Table 5, sample 8243 (positive), peptide concentration 0.01 micrograms per milliliter, listed as Unbiotinylated HCV peptide IX) was 0.054 and the “optical density (450 nm)” value ([1]; Table 5, sample 8243 (positive), peptide concentration 0.03 micrograms per milliliter, listed as Unbiotinylated HCV peptide IX) was 0.051. For the same sequence, the “optical density (450 nm)” value ([1]; Table 5, sample 8243 (positive), peptide concentration 0.1 micrograms per milliliter, listed as Unbiotinylated HCV peptide IX) was 0.051, the “optical density (450 nm)” value ([1]; Table 5, sample 8243 (positive), peptide concentration 0.3 micrograms per milliliter, listed as Unbiotinylated HCV peptide IX) was 0.051 and the “optical density (450 nm)” value ([1]; Table 5, sample 8243 (positive), peptide concentration 1.0 micrograms per milliliter, listed as Unbiotinylated HCV peptide IX) was 0.053. For the same sequence, the “optical density (450 nm)” value ([1]; Table 5, sample 8243 (positive), peptide concentration 3.0 micrograms per milliliter, listed as Unbiotinylated HCV peptide IX) was 0.063, the “optical density (450 nm)” value ([1]; Table 5, sample 8320 (positive), peptide concentration 0.01 micrograms per milliliter, listed as Unbiotinylated HCV peptide IX) was 0.059 and the “optical density (450 nm)” value ([1]; Table 5, sample 8320 (positive), peptide concentration 0.03 micrograms per milliliter, listed as Unbiotinylated HCV peptide IX) was 0.057. The “optical density (450 nm)” value ([1]; Table 5, sample 8320 (positive), peptide concentration 0.1 micrograms per milliliter, listed as Unbiotinylated HCV peptide IX) was 0.063, the “optical density (450 nm)” value ([1]; Table 5, sample 8320 (positive), peptide concentration 0.3 micrograms per milliliter, listed as Unbiotinylated HCV peptide IX) was 0.122 and the “optical density (450 nm)” value ([1]; Table 5, sample 8320 (positive), peptide concentration 1.0 micrograms per milliliter, listed as Unbiotinylated HCV peptide IX) was 0.093. The “optical density (450 nm)” value ([1]; Table 5, sample 8320 (positive), peptide concentration 3.0 micrograms per milliliter, listed as Unbiotinylated HCV peptide IX) was 0.129, the “optical density (450 nm)” value ([1]; Table 5, sample 8326 (positive), peptide concentration 0.01 micrograms per milliliter, listed as Unbiotinylated HCV peptide IX) was 0.049 and the “optical density (450 nm)” value ([1]; Table 5, sample 8326 (positive), peptide concentration 0.03 micrograms per milliliter, listed as Unbiotinylated HCV peptide IX) was 0.051. The “optical density (450 nm)” value ([1]; Table 5, sample 8326 (positive), peptide concentration 0.1 micrograms per milliliter, listed as Unbiotinylated HCV peptide IX) was 0.068, the “optical density (450 nm)” value ([1]; Table 5, sample 8326 (positive), peptide concentration 0.3 micrograms per milliliter, listed as Unbiotinylated HCV peptide IX) was 0.078 and the “optical density (450 nm)” value ([1]; Table 5, sample 8326 (positive), peptide concentration 1.0 micrograms per milliliter, listed as Unbiotinylated HCV peptide IX) was 0.068. For the same sequence, the “optical density (450 nm)” value ([1]; Table 5, sample 8326 (positive), peptide concentration 3.0 micrograms per milliliter, listed as Unbiotinylated HCV peptide IX) was 0.084, the “optical density (450 nm)” value ([2]; Table 4F, negative serum) was 0.052 and the “optical density (450 nm)” value ([2]; Table 5, sample 1747 (negative), peptide concentration 0.01 micrograms per milliliter, listed as Unbiotinylated HCV peptide IX) was 0.045. The “optical density (450 nm)” value ([2]; Table 5, sample 1747 (negative), peptide concentration 0.03 micrograms per milliliter, listed as Unbiotinylated HCV peptide IX) was 0.045, the “optical density (450 nm)” value ([2]; Table 5, sample 1747 (negative), peptide concentration 0.1 micrograms per milliliter, listed as Unbiotinylated HCV peptide IX) was 0.045 and the “optical density (450 nm)” value ([2]; Table 5, sample 1747 (negative), peptide concentration 0.3 micrograms per milliliter, listed as Unbiotinylated HCV peptide IX) was 0.044. For the same sequence, the “optical density (450 nm)” value ([2]; Table 5, sample 1747 (negative), peptide concentration 1.0 micrograms per milliliter, listed as Unbiotinylated HCV peptide IX) was 0.046, the “optical density (450 nm)” value ([2]; Table 5, sample 1747 (negative), peptide concentration 3.0 micrograms per milliliter, listed as Unbiotinylated HCV peptide IX) was 0.046 and the “optical density (450 nm)” value ([2]; Table 5, sample 1781 (negative), peptide concentration 0.01 micrograms per milliliter, listed as Unbiotinylated HCV peptide IX) was 0.051. For the same sequence, the “optical density (450 nm)” value ([2]; Table 5, sample 1781 (negative), peptide concentration 0.03 micrograms per milliliter, listed as Unbiotinylated HCV peptide IX) was 0.049, the “optical density (450 nm)” value ([2]; Table 5, sample 1781 (negative), peptide concentration 0.1 micrograms per milliliter, listed as Unbiotinylated HCV peptide IX) was 0.052 and the “optical density (450 nm)” value ([2]; Table 5, sample 1781 (negative), peptide concentration 0.3 micrograms per milliliter) was 0.051. For the same sequence, the “optical density (450 nm)” value ([2]; Table 5, sample 1781 (negative), peptide concentration 1.0 micrograms per milliliter, listed as Unbiotinylated HCV peptide IX) was 0.052 and the “optical density (450 nm)” value ([2]; Table 5, sample 1781 (negative), peptide concentration 3.0 micrograms per milliliter) was 0.053.
